US20220089710A1, “Method of Treating Signs and Symptoms of Osteoarthritis” (Pfizer Inc., priority 2019, published 2022)
Read-outs that look alike come from different tables or passages of the source.

Experiments:
[1] = test system: patients with osteoarthritis (OA) of the knee or hip; conditions: for PGA-OA: LS Mean (SE) change from Baseline / PGA-OA: LS Mean Difference vs. NSAID (SE) / WOMAC Pain ≥30% reduction: % of patients / WOMAC Pain ≥30% reduction: number of patients / WOMAC Pain ≥70% reduction: % of patients / WOMAC Pain ≥70% reduction: number of patients / WOMAC Pain ≥90% reduction: % of patients / WOMAC Pain ≥90% reduction: number of patients / WOMAC Pain: LS Mean Difference vs. NSAID (SE) / WOMAC Physical Function: LS Mean (SE) change from Baseline / WOMAC Physical Function: LS Mean Difference vs. NSAID (SE) / WOMAC Pain: LS Mean (SE) change from Baseline / WOMAC Pain ≥50% reduction: % of patients / WOMAC Pain ≥50% reduction: number of patients: Week 16; for PGA-OA: LS Mean Difference vs. NSAID / PGA-OA: LS Mean change from Baseline / WOMAC Pain: LS Mean Difference vs. NSAID / WOMAC Pain: LS Mean change from Baseline / WOMAC Physical Function: LS Mean Difference vs. NSAID / WOMAC Physical Function: LS Mean change from Baseline: Week 56;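 as to all read-outs here: SC doses every 8 weeks plus twice-daily oral study drug to Week 56, efficacy assessed in all randomized patients given at least one SC dose, by assigned arm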
Description: (§1) Patients received a total of seven SC injections, each separated by 8 weeks and daily oral (PO) study medication BID through Week 56.
(§2) The Intent-to-Treat (ITT) Population included all patients who were randomized and received at least one dose of SC study drug. This analysis set was primary for all efficacy endpoints, which were analyzed according to randomization assignment. The Safety Population included all patients who received at least one dose of SC study treatment. This analysis set was primary for all safety endpoints, which were analyzed according to treatment received.

[2] = test system: patients with osteoarthritis (OA) of the knee or hip; test: Example 3: treatment-emergent adverse events and deaths, Safety Population; conditions: 2.5 mg SC;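 also: seven SC injections given 8 weeks apart plus twice-daily oral study medication up to Week 56, Safety Population of all patients dosed at least once SC, analyzed by treatment actually received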
Description: as §1, §2

Substance: tanezumab: humanized immunoglobulin G Type 2 (IgG2) monoclonal antibody directed against human nerve growth factor (NGF); SEQ ID NOs: 9 or 11 and 10
- PGA-OA: LS Mean (SE) change from Baseline ([1]; 2.5 mg SC): −0.96 (0.04)
- PGA-OA: LS Mean Difference vs. NSAID (SE) ([1]; 2.5 mg SC): −0.02 (0.04)
- WOMAC Pain ≥30% reduction: % of patients ([1]; 2.5 mg SC): 71.8%
- WOMAC Pain ≥30% reduction: number of patients ([1]; 2.5 mg SC): 718
- WOMAC Pain ≥70% reduction: % of patients ([1]; 2.5 mg SC): 28.9%
- WOMAC Pain ≥70% reduction: number of patients ([1]; 2.5 mg SC): 289
- WOMAC Pain ≥90% reduction: % of patients ([1]; 2.5 mg SC): 10.3%
- WOMAC Pain ≥90% reduction: number of patients ([1]; 2.5 mg SC): 103
- WOMAC Pain: LS Mean Difference vs. NSAID (SE) ([1]; 2.5 mg SC): −0.15 (0.11)
- WOMAC Physical Function: LS Mean (SE) change from Baseline ([1]; 2.5 mg SC): −3.27 (0.11)
- WOMAC Physical Function: LS Mean Difference vs. NSAID (SE) ([1]; 2.5 mg SC): −0.19 (0.11)
- WOMAC Pain: LS Mean (SE) change from Baseline ([1]; 2.5 mg SC, ITT, multiple imputation): −3.22 (0.11)
- WOMAC Pain ≥50% reduction: % of patients ([1]; 2.5 mg SC, mixed BOCF/LOCF): 54.9%
- WOMAC Pain ≥50% reduction: number of patients ([1]; 2.5 mg SC, mixed BOCF/LOCF): 549
- PGA-OA: LS Mean Difference vs. NSAID ([1]; 2.5 mg SC): 0.01
- PGA-OA: LS Mean change from Baseline ([1]; 2.5 mg SC): −0.65
- WOMAC Pain: LS Mean Difference vs. NSAID ([1]; 2.5 mg SC): −0.02
- WOMAC Pain: LS Mean change from Baseline ([1]; 2.5 mg SC): −2.44
- WOMAC Physical Function: LS Mean Difference vs. NSAID ([1]; 2.5 mg SC): −0.05
- WOMAC Physical Function: LS Mean change from Baseline ([1]; 2.5 mg SC): −2.45
- PGA-OA: LS Mean (SE) change from Baseline ([1]; 5 mg SC): −0.97 (0.04)
- PGA-OA: LS Mean Difference vs. NSAID (SE) ([1]; 5 mg SC): −0.04 (0.04)
- WOMAC Pain ≥30% reduction: % of patients ([1]; 5 mg SC): 72.9%
- WOMAC Pain ≥30% reduction: number of patients ([1]; 5 mg SC): 725
- WOMAC Pain ≥50% reduction: % of patients ([1]; 5 mg SC): 56.5%
- WOMAC Pain ≥50% reduction: number of patients ([1]; 5 mg SC): 562
- WOMAC Pain ≥70% reduction: % of patients ([1]; 5 mg SC): 35.0%
- WOMAC Pain ≥70% reduction: number of patients ([1]; 5 mg SC): 348
- WOMAC Pain ≥90% reduction: % of patients ([1]; 5 mg SC): 12.7%
- WOMAC Pain ≥90% reduction: number of patients ([1]; 5 mg SC): 126
- WOMAC Pain: LS Mean (SE) change from Baseline ([1]; 5 mg SC): −3.33 (0.11)
- WOMAC Pain: LS Mean Difference vs. NSAID (SE) ([1]; 5 mg SC): −0.26 (0.11)
- WOMAC Physical Function: LS Mean (SE) change from Baseline ([1]; 5 mg SC): −3.39 (0.11)
- WOMAC Physical Function: LS Mean Difference vs. NSAID (SE) ([1]; 5 mg SC): −0.31 (0.10)
- PGA-OA: LS Mean Difference vs. NSAID ([1]; 5 mg SC): 0.06
- PGA-OA: LS Mean change from Baseline ([1]; 5 mg SC): −0.60
- WOMAC Pain: LS Mean Difference vs. NSAID ([1]; 5 mg SC): 0.05
- WOMAC Pain: LS Mean change from Baseline ([1]; 5 mg SC): −2.37
- WOMAC Physical Function: LS Mean Difference vs. NSAID ([1]; 5 mg SC): 0.05
- WOMAC Physical Function: LS Mean change from Baseline ([1]; 5 mg SC): −2.36
- deaths: patients ([2]; during the safety follow-up period): 2
- deaths: patients ([2]; during the treatment period): 2
- Adverse Event: % of patients ([2]; treatment period): 62.8%
- Adverse Event: number of patients ([2]; treatment period): 629
- Arthralgia: % of patients ([2]; treatment period): 13.3%
- Arthralgia: number of patients ([2]; treatment period): 133
- Back pain: % of patients ([2]; treatment period): 3.4%
- Back pain: number of patients ([2]; treatment period): 34
- Discontinued from study (adverse event): % of patients ([2]; treatment period): 2.3%
- Discontinued from study (adverse event): number of patients ([2]; treatment period): 23
- Discontinued study drug and continued study (adverse event): % of patients ([2]; treatment period): 5.3%
- Discontinued study drug and continued study (adverse event): number of patients ([2]; treatment period): 53
- Fall: % of patients ([2]; treatment period): 6.5%
- Fall: number of patients ([2]; treatment period): 65
- Headache: % of patients ([2]; treatment period): 5.6%
- Headache: number of patients ([2]; treatment period): 56
- Joint swelling: % of patients ([2]; treatment period): 4.3%
- Joint swelling: number of patients ([2]; treatment period): 43
- Musculoskeletal pain: % of patients ([2]; treatment period): 4.3%
- Musculoskeletal pain: number of patients ([2]; treatment period): 43
- Nasopharyngitis: % of patients ([2]; treatment period): 5.7%
- Nasopharyngitis: number of patients ([2]; treatment period): 57
- Osteoarthritis: % of patients ([2]; treatment period): 3.9%
- Osteoarthritis: number of patients ([2]; treatment period): 39
- Pain in extremity: % of patients ([2]; treatment period): 3.1%
- Pain in extremity: number of patients ([2]; treatment period): 31
- Paraesthesia: % of patients ([2]; treatment period): 1.8%
- Paraesthesia: number of patients ([2]; treatment period): 18
- Peripheral edema: % of patients ([2]; treatment period): 1.9%
- Peripheral edema: number of patients ([2]; treatment period): 19
- Rapidly progressive osteoarthritis (adverse event): % of patients ([2]; treatment period): 1.8%
- Rapidly progressive osteoarthritis (adverse event): number of patients ([2]; treatment period): 18
- Serious AE Acute kidney injury: n ([2]; treatment period): 0
- Serious AE Acute myocardial infarction: % ([2]; treatment period): 1.0%
- Serious AE Acute myocardial infarction: n ([2]; treatment period): 1
- Serious AE Arthralgia: % ([2]; treatment period): 0.4%
- Serious AE Arthralgia: n ([2]; treatment period): 4
- Serious AE Cellulitis: n ([2]; treatment period): 0
- Serious AE Cerebrovascular accident: % ([2]; treatment period): 0.2%
- Serious AE Cerebrovascular accident: n ([2]; treatment period): 2
